Assay results published in patent US9096592B2, “Bicyclic aza heterocycles, and use thereof” (BAYER INTELLECTUAL PROPERTY GMBH, priority 2010, dated 2015).
Where a name gives a salt, the structure may show the parent alone.

Test system: aorta rings
Test: Vasorelaxant action in vitro (phenylephrine-contracted rabbit aorta rings, organ bath)
Settings: Oryctolagus cuniculus; concentration needed to reduce the phenylephrine contraction of rabbit aorta rings by 50%
Procedure: B-1. Vasorelaxant Action In Vitro
Rabbits are stunned by a blow to the neck and exsanguinated. The aorta is removed, freed from adhering tissue and divided into rings of width 1.5 mm, which are placed individually under prestress into 5 ml organ baths with carbogen-sparged Krebs-Henseleit solution at 37° C. having the following composition (each mM): sodium chloride 119; potassium chloride: 4.8; calcium chloride dihydrate: 1; magnesium sulfate heptahydrate: 1.4; potassium dihydrogenphosphate: 1.2; sodium hydrogencarbonate: 25; glucose: 10. The contractile force is determined with Statham UC2 cells, amplified and digitalized using A/D transducers (DAS-1802 HC, Keithley Instruments Munich), and recorded in parallel on linear recorders. To obtain a contraction, phenylephrine is added to the bath cumulatively in increasing concentration. After several control cycles, the substance to be studied is added in increasing dosage each time in every further run, and the magnitude of the contraction is compared with the magnitude of the contraction attained in the last preceding run. This is used to calculate the concentration needed to reduce the magnitude of the control value by 50% (IC50 value). The standard administration volume is 5 μl; the DMSO content in the bath solution corresponds to 0.1%.

| SMILES | IC50 [nM] |
| --- | --- |
| COC(=O)N1NC(=O)Nc2nc(-c3nn(Cc4ccccc4F)c4ncccc34)nc(N)c21 [Example 105, Methyl 8-amino-6-[1-(2-fluorobenzyl)-1H-pyrazolo[3,4-b]pyridin-3-yl]-3-oxo-3,4-dihydropyrimido[4,5-e][1,2,4]triazine-1(2H)-carboxylate] | 402 |
| Cn1c(=O)[nH]c2nc(-c3nn(Cc4ccccc4F)c4ncccc34)nc(N3CCC3)c21 [Example 112, 6-(Azetidin-1-yl)-2-[1-(2-fluorobenzyl)-1H-pyrazolo[3,4-b]pyridin-3-yl]-7-methyl-7,9-dihydro-8H-purin-8-one] | 1350 |
| Cc1nc(-c2nn(Cc3ccccc3F)c3ncccc23)nc2[nH]c(=O)[nH]c12 [Example 119, 2-[1-(2-Fluorobenzyl)-1H-pyrazolo[3,4-b]pyridin-3-yl]-6-methyl-7,9-dihydro-8H-purin-8-one] | 735 |
| CC(C)(C)Cn1c(=O)[nH]c2nc(-c3nn(Cc4ccccc4F)c4ncccc34)ncc21 [Example 122, 7-(2,2-Dimethylpropyl)-2-[1-(2-fluorobenzyl)-1H-pyrazolo[3,4-b]pyridin-3-yl]-7,9-dihydro-8H-purin-8-one] | 42 |
| O=c1[nH]c2nc(-c3nn(Cc4ccccc4F)c4ncccc34)ncc2n1Cc1ccccc1F [Example 124, 7-(2-fluorobenzyl)-2-[1-(2-fluorobenzyl)-1H-pyrazolo[3,4-b]pyridin-3-yl]-7,9-dihydro-8H-purin-8-one] | 87 |
| Cn1c(=O)[nH]c2nc(-c3nn(Cc4ccccc4F)c4ncccc34)nc(C#CC(C)(C)O)c21 [Example 135, 2-[1-(2-Fluorobenzyl)-1H-pyrazolo[3,4-b]pyridin-3-yl]-6-(3-hydroxy-3-methylbut-1-yn-1-yl)-7-methyl-7,9-dihydro-8H-purin-8-one] | 264 |
| Cn1c(=O)[nH]c2nc(-c3nn(Cc4ccccc4F)c4ncccc34)nc(C(C)(C)O)c21 [Example 136, 2-[1-(2-Fluorobenzyl)-1H-pyrazolo[3,4-b]pyridin-3-yl]-6-(2-hydroxypropan-2-yl)-7-methyl-7,9-dihydro-8H-purin-8-one] | 114 |
| O=c1[nH]c2nc(-c3nn(Cc4ccccc4F)c4ncccc34)ncc2n1CCN1CCOCC1 [Example 142, 2-[1-(2-Fluorobenzyl)-1H-pyrazolo[3,4-b]pyridin-3-yl]-7-[2-(morpholin-4-yl)ethyl]-7,9-dihydro-8H-purin-8-one] | 98 |
| O=c1[nH]c2nc(-c3nn(Cc4ccccc4F)c4ncccc34)ncc2n1C1CCN(CC(F)F)CC1 [Example 145, 7-[1-(2,2-Difluoroethyl)piperidin-4-yl]-2-[1-(2-fluorobenzyl)-1H-pyrazolo[3,4-b]pyridin-3-yl]-7,9-dihydro-8H-purin-8-one] | 171 |
| CS(=O)(=O)CCn1c(=O)[nH]c2nc(-c3nn(Cc4ccccc4F)c4ncc(F)cc34)ncc21 [Example 146, 2-[5-Fluoro-1-(2-fluorobenzyl)-1H-pyrazolo[3,4-b]pyridin-3-yl]-7-[2-(methylsulfonyl)ethyl]-7,9-dihydro-8H-purin-8-one] | 421 |
| O=c1[nH]c2nc(-c3nn(Cc4ccccc4F)c4ncccc34)ncc2n1C1CNC1 [Example 147, 7-(Azetidin-3-yl)-2-[1-(2-fluorobenzyl)-1H-pyrazolo[3,4-b]pyridin-3-yl]-7,9-dihydro-8H-purin-8-one hydrochloride] | 580 |
| O=c1[nH]c2nc(-c3nn(Cc4ccccc4F)c4ncccc34)ncc2c(=O)n1CC(F)(F)F [Example 149, 7-[1-(2-Fluorobenzyl)-1H-pyrazolo[3,4-b]pyridin-3-yl]-3-(2,2,2-trifluoroethyl)pyrimido[4,5-d]pyrimidine-2,4(1H,3H)-dione] | 462 |
| O=c1[nH]c(=O)c2cnc(-c3nn(Cc4ccccc4F)c4ncccc34)nc2[nH]1 [Example 150, 7-[1-(2-Fluorobenzyl)-1H-pyrazolo[3,4-b]pyridin-3-yl]pyrimido[4,5-d]pyrimidine-2,4(1H,3H)-dione] | 479 |
| CCc1nc(=O)c2cnc(-c3nn(Cc4ccccc4F)c4ncccc34)nc2[nH]1 [Example 153, 2-Ethyl-7-[1-(2-fluorobenzyl)-1H-pyrazolo[3,4-b]pyridin-3-yl]pyrimido[4,5-d]pyrimidin-4(1H)-one] | 1300 |
